Tests used:
[1] = molecular target: estrogen receptor (Homo sapiens (Human), UniProt P03372); test: 2×VIT ERE infection luciferase assay; assay type: cell-based; settings: for Infection Luciferase Activity, 1 uM + 17β estradiol: 1 uM compound + 1 nM 17β-estradiol (estrogen antagonism); for Infection Luciferase Activity, 1 uM: 1 uM compound alone, percentage of activity as compared to 17β-estradiol
Method: Chinese Hamster Ovary cells (CHO) which had been stably transfected with the human estrogen receptor were maintained in DMEM+10% fetal bovine serum (FBS). 48 h prior to treatment the growth medium was replaced with DMEM lacking phenol red+10% dextran coated charcoal stripped FBS (treatment medium). Cells were plated at a density of 5000 cells/well in 96-well plates containing 200 μL of medium/well.
Reporter DNA (Promega plasmid pGL2 containing two tandem copies of the vitellogenin ERE in front of the minimal thymidine kinase promoter driving the luciferase gene) was combined with the B-galactosidase expression plasmid pCH110 (Pharmacia) and carrier DNA (pTZ18U) in the following ratio:
20 uL of this mixture was added to each well of cells and remained on the cells for 16 h. […] Each treatment condition was performed on 8 wells (n=8) which were incubated for 24 h prior to the luciferase assay.
After removing the PBS, 25 uL of Promega lysis buffer was added to each well and allowed to stand at room temperature for 15 min, followed by 15 min at −80° C. and 15 min at 37° C. 20 uL of lysate was transferred to an opaque 96 well plate for luciferase activity evaluation and the remaining lysate (5 uL) was used for the B-galactosidase activity evaluation (normalize transfection). The luciferan substrate (Promega) was added in 100 uL aliquots to each well automatically by the luminometer and the light produced (relative light units) was read 10 seconds after addition.
To the remaining 5 uL of lysate 45 uL of PBS was added. Then 50 uL of Promega B-galactosidase 2× assay buffer was added, mixed well and incubated at 37° C. for 1 hour. A plate containing a standard curve (0.1 to 1.5 milliunits in triplicate) was set up for each experimental run. The plates were analyzed on a Molecular Devices spectrophotometric plate reader at 410 nm. The optical densities for the unknown were converted to milliunits of activity by mathematical extrapolation from the standard curve.
The luciferase data was generated as relative light units (RLUs) accumulated during a 10 second measurement and automatically transferred to a JMP (SAS Inc) file where background RLUs were subtracted. The B-galactosidase values were automatically imported into the file and these values were divided into the RLUs to normalize the data. The mean and standard deviations were determined from a n=8 for each treatment. […] These techniques are described by Tzukerman, M. T., Esty, A., Santiso-Mere, D., Danielian, P., Parker, M. G., Stein, R. B., Pike, J. W. and McDonnel, D. P. (1994). Human estrogen receptor transactivational capacity was determined by both cellular and promoter context and mediated by two functionally distinct intramolecular regions (see Molecular Endocrinology, 8:21-30).

[2] = system: Immature Sprague-Dawley rats; test: Rat uterotrophic/antiuterotrophic bioassay; assay type: in vivo; settings: immature female rats, daily ip; for Uterine wt mg 100 uG cmpd + 1uG 17β-estradiol: 100 uG compound + 1 uG 17β-estradiol; for Uterine wt mg 100 uG cmpd: 100 uG compound, wet weight
Method: The estrogenic and antiestrogenic properties of the compounds were determined in an immature rat uterotrophic assay (4 day) that (as described previously by L. J. Black and R. L. Goode, Life Sciences, 26, 1453 (1980)). Immature Sprague-Dawley rats (female, 18 days old) were tested in groups of six. […] On day 4 the animals were sacrificed by CO2 asphyxiation and their uteri were removed and stripped of excess lipid, any fluid removed and the wet weight determined. A small section of one horn was submitted for histology and the remainder used to isolate total RNA in order to evaluate complement component 3 gene expression.

Sequence of estrogen receptor (P03372 whole entry): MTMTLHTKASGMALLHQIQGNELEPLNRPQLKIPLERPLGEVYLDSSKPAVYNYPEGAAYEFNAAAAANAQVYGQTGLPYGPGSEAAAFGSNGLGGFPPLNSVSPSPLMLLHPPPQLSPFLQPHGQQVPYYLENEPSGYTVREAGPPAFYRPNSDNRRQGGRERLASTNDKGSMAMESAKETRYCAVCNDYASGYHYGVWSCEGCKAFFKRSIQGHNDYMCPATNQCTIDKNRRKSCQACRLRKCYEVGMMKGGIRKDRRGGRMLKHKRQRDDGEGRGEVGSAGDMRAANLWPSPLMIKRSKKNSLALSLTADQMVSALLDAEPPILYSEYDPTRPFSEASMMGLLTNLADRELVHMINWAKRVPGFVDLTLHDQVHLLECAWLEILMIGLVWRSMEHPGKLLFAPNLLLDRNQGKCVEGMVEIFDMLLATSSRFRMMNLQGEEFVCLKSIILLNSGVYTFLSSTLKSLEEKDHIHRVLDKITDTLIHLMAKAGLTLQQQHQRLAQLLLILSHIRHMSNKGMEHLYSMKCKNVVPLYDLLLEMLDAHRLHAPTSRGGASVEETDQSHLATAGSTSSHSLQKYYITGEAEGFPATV

Infection Luciferase Activity, 1 uM + 17β estradiol [1] | Infection Luciferase Activity, 1 uM [1] | Structure (SMILES) | Uterine wt mg 100 uG cmpd + 1uG 17β-estradiol [2] | Uterine wt mg 100 uG cmpd [2]
– | – | Cc1c(-c2ccc(O)cc2)n(Cc2ccc(OCCN3CCCCC3)cc2)c2ccc(F)cc12 [No. 94, 4-{5-Fluoro-3-methyl-1-[4-(2-piperidin-1-yl-ethoxy)-benzyl]-1H-indol-2-yl}-phenol] | 93.7 mg | 28.1 mg
−4% | −4% | Cc1c(-c2ccccc2)n(Cc2ccc(OCCN3CCCCCC3)cc2)c2ccc(O)cc12 [No. 95, 1-[4-(2-Azepan-1-yl-ethoxy)-benzyl]-3-methyl-2-phenyl-1H-indol-5-ol] | – | –
– | – | Cc1c(-c2ccc(O)cc2)n(Cc2ccc(OCCN3CCCCC3)cc2)c2ccc(O)cc12 [No. 97, 2-(4-Hydroxy-phenyl)-3-methyl-1-[4-(2-piperidin-1-yl-ethoxy)-benzyl]-1H-indol-5-ol] | 24.3 mg | 27.4 mg
– | – | Cc1c(-c2ccc(O)cc2)n(Cc2ccc(OCCN(C)C)cc2)c2ccc(O)cc12 [No. 100, 2-(4-Hydroxy-phenyl)-3-methyl-1-[4-(2-dimethyl-1-yl-ethoxy)-benzyl]-1H-indol-5-ol] | 68.7 mg | 59.9 mg
– | – | CCN(CC)CCOc1ccc(Cn2c(-c3ccc(O)cc3)c(C)c3cc(O)ccc32)cc1 [No. 101, 2-(4-Hydroxy-phenyl)-3-methyl-1-[4-(2-diethyl-1-yl-ethoxy)-benzyl]-1H-indol-5-ol] | 71.0 mg | 65.1 mg
10% | 9% | CCCN(CCC)CCOc1ccc(Cn2c(-c3ccc(O)cc3)c(C)c3cc(O)ccc32)cc1 [No. 102, 1-[4-(2-Dipropylamino-ethoxy)-benzyl]-2-(4-hydroxy-phenyl)-3-methyl-1H-indol-5-ol] | – | –
10% | 13% | CCCCN(CCCC)CCOc1ccc(Cn2c(-c3ccc(O)cc3)c(C)c3cc(O)ccc32)cc1 [No. 103, 1-[4-(2-Dibutylamino-ethoxy)-benzyl]-2-(4-hydroxy-phenyl)-3-methyl-1H-indol-5-ol] | – | –
5% | 5% | CCCCN(C)CCOc1ccc(Cn2c(-c3ccc(O)cc3)c(C)c3cc(O)ccc32)cc1 [No. 105, 1-{4-[2-(Butyl-methyl-amino)-ethoxy]-benzyl}-2-(4-hydroxy-phenyl)-3-methyl-1H-indol-5-ol] | – | –
10% | 8% | Cc1c(-c2ccc(O)cc2)n(Cc2ccc(OCCN3CCC(C)CC3)cc2)c2ccc(O)cc12 [No. 110, 2-(4-Hydroxy-phenyl)-3-methyl-1-{4-[2-(4-methyl-piperidin-1-yl)-ethoxy]-benzyl}-1H-indol-5-ol] | – | –
23% | 25% | Cc1c(-c2ccc(O)cc2)n(Cc2ccc(OCCN3CCCC(C)(C)C3)cc2)c2ccc(O)cc12 [No. 111, 1-{4-[2-(3,3-Dimethyl-piperidin-1-yl)-ethoxy]-benzyl}2-(4-hydroxy-phenyl)-3-methyl-1H-indol-5-ol] | – | –
16% | 14% | Cc1c(-c2ccc(O)cc2)n(Cc2ccc(OCCN3CCC(O)CC3)cc2)c2ccc(O)cc12 [No. 113, 2-(4-Hydroxy-phenyl)-1-{4-[2-(4-hydroxy-piperidin-1-yl)-ethoxy]-benzyl}-3-methyl-1H-indol-5-ol] | – | –
−1% | 1% | Cc1c(-c2ccc(O)cc2)n(Cc2ccc(OCCN3C[C@@H]4CC[C@H]3C4)cc2)c2ccc(O)cc12 [No. 114, (1S,4R)-1-{4-[2-(2-Aza-bicyclo[2.2.1]hept-2-yl)-ethoxy]-benzyl}-2-(4-hydroxy-phenyl)-3-methyl-1H-indol-5-ol] | – | –
10% | 11% | Cc1c(-c2ccc(O)cc2)n(Cc2ccc(OCCN3CC4(C)CC3CC(C)(C)C4)cc2)c2ccc(O)cc12 (stereo not shown) [No. 115, 2-(4-Hydroxy-phenyl)-3-methyl-1-{4-[2-(1,3,3-trimethyl-6-aza-bicyclo[3.2.1]oct-6-yl)-ethoxy]-benzyl}-1H-indol-5-ol] | – | –
9% | 7% | Oc1ccc(-c2c(Cl)c3cc(O)ccc3n2Cc2ccc(OCCN3CCCC3)cc2)cc1 [No. 133, 3-Chloro-2-(4-hydroxy-phenyl)-1-[4-(2-pyrrolidin-1-yl-ethoxy)-benzyl]-1H-indol-5-ol] | – | –
– | – | N#Cc1c(-c2ccc(O)cc2)n(Cc2ccc(OCCN3CCCCCC3)cc2)c2ccc(O)cc12 [No. 139, 1-[4-(2-Azepan-1-yl-ethoxy)-benzyl]-5-hydroxy-2-(4-hydroxy-phenyl)-1H-indole-3-carbonitrile] | 45.0 mg | 30.4 mg
23% | 25% | Cc1c(-c2ccc(O)cc2)n(Cc2ccc(OCCCN3CCCCC3)cc2)c2ccc(O)cc12 [No. 166, 2-(4-Hydroxy-phenyl)-3-methyl-1-{4-[3-(piperidin-1-yl)-propoxy]-benzyl}-1H-indol-5-ol] | – | –

Structure (SMILES) | Infection Luciferase Activity, 1 uM + 17β estradiol [1] | Infection Luciferase Activity, 1 uM [1] | Uterine wt mg 100 uG cmpd + 1uG 17β-estradiol [2] | Uterine wt mg 100 uG cmpd [2]
Cc1c(-c2ccccc2)n(Cc2ccc(OCCN3CCCCC3)cc2)c2ccc(O)cc12 [No. 87, 3-Methyl-2-phenyl-1-[4-(2-piperidine-1-yl-ethoxy)-benzyl]-1H-indol-5-ol] | 0% | 0% | – | –
Cc1c(-c2ccc(O)cc2)n(Cc2ccc(OCCN3CCCC3)cc2)c2ccc(O)cc12 [No. 96, 2-(4-Hydroxy-phenyl)-3-methyl-1-[4-(2-pyrollidin-1-yl-ethoxy)-benzyl]-1H-indol-5-ol] | 8% | 12% | – | –
Cc1c(-c2ccc(O)cc2)n(Cc2ccc(OCCN(C(C)C)C(C)C)cc2)c2ccc(O)cc12 [No. 104, 1-[4-(2-Diisopropylamino-ethoxy)-benzyl]-2-(4-hydroxy-phenyl)-3-methyl-1H-indol-5-ol] | 7% | 7% | – | –
Cc1c(-c2ccc(O)cc2)n(Cc2ccc(OCCN3CCCCC3C)cc2)c2ccc(O)cc12 (stereo not shown) [No. 108, 2-(4-Hydroxy-phenyl)-3-methyl-1-{4-[2-(2-methyl-piperidin-1-yl)-ethoxy]-benzyl}-1H-indol-5-ol] | 10% | 11% | – | –
Cc1c(-c2ccc(O)cc2)n(Cc2ccc(OCCN3CCCC(C)C3)cc2)c2ccc(O)cc12 (stereo not shown) [No. 109, 2-(4-Hydroxy-phenyl)-3-methyl-1-{4-[2-(3-methyl-piperidin-1-yl)-ethoxy]-benzyl}-1H-indol-5-ol] | 5% | 6% | – | –
Cc1c(-c2cccc(O)c2)n(Cc2ccc(OCCN3CCCCC3)cc2)c2ccc(O)cc12 [No. 127, 2-(3-Hydroxy-phenyl)-3-methyl-1-[4-(2-piperidin-1-yl-ethoxy)-benzyl]-1H-indol-5-ol] | −4% | −3% | – | –
CCc1c(-c2ccc(O)cc2)n(Cc2ccc(OCCN3CCCCC3)cc2)c2ccc(O)cc12 [No. 137, 2-(4-Hydroxy-phenyl)-3-ethyl-1-[4-(2-piperidin-1-yl-ethoxy)-benzyl]-1H-indol-5-ol] | 8% | 6% | – | –
